Data from article PMC6364417, “Kinase inhibitor library screening identifies synergistic drug combinations effective in sensitive and resistant melanoma cells” (Journal of Experimental & Clinical Cancer Research : CR, 2019).

Columns and labels:
Assay in all cases: Kinase inhibitor library screening, PrestoBlue cell viability, 1 or 10 μM, 72 h
[1] = test system: 501Mel-GP cells (Dabrafenib-resistant); conditions: for cell viability (kinase inhibitor library screening): 501Mel GP, in %
A375 cells (parental) = conditions: for cell viability (kinase inhibitor library screening): A375 Parental, in %
[2] = test system: A375-GP cells (Dabrafenib-resistant); conditions: for cell viability (kinase inhibitor library screening): A375 GP, in %
[3] = test system: A375-XP cells (Vemurafenib-resistant); conditions: for cell viability (kinase inhibitor library screening): A375 XP, in %
[4] = test system: 501Mel-XP cells (Vemurafenib-resistant); conditions: for cell viability (kinase inhibitor library screening): 501Mel XP, in %
[5] = test system: IGR37-XP cells (Vemurafenib-resistant); conditions: for cell viability (kinase inhibitor library screening): IGR37 XP, in %
[6] = test system: IGR37-GP cells (Dabrafenib-resistant); conditions: for cell viability (kinase inhibitor library screening): IGR37 GP, in %
IGR37 cells (parental) = conditions: for cell viability (kinase inhibitor library screening): IGR37 Parental, in %
501Mel cells (parental) = conditions: for cell viability (kinase inhibitor library screening): 501Mel Parental, in %
Method in brief: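 Cells are treated with each inhibitor at 1 or 10 μM, incubated 72 h, then PrestoBlue reagent is added and the plate is read. Data are normalised to untreated cells.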

Structure (SMILES): CN(C)CCOc1ccc(-c2nc(-c3ccncc3)c(-c3ccc4c(c3)CC/C4=N\O)[nH]2)cc1 [SB590885]
- cell viability (kinase inhibitor library screening) ([1]; 1μΜ): 110.5
- cell viability (kinase inhibitor library screening) ([1]; 10μΜ): 0.56
- cell viability (kinase inhibitor library screening) (A375 cells (parental); 1μΜ): 38.0
- cell viability (kinase inhibitor library screening) (A375 cells (parental); 10μΜ): 33.1
- cell viability (kinase inhibitor library screening) ([2]; 1μΜ): 73.8
- cell viability (kinase inhibitor library screening) ([2]; 10μΜ): 25.8
- cell viability (kinase inhibitor library screening) ([3]; 1μΜ): 71.7
- cell viability (kinase inhibitor library screening) ([3]; 10μΜ): 18.9
- cell viability (kinase inhibitor library screening) ([4]; 1μΜ): 121.3
- cell viability (kinase inhibitor library screening) ([4]; 10μΜ): 0.7
- cell viability (kinase inhibitor library screening) ([5]; 10μΜ): 30.0
- cell viability (kinase inhibitor library screening) ([6]; 10μΜ): 79.6
- cell viability (kinase inhibitor library screening) (IGR37 cells (parental); 1μΜ): 52.0
- cell viability (kinase inhibitor library screening) (IGR37 cells (parental); 10μΜ): 40.7
- cell viability (kinase inhibitor library screening) (501Mel cells (parental); 1μΜ): 74.7
- cell viability (kinase inhibitor library screening) (501Mel cells (parental); 10μΜ): 0.649

Structure (SMILES): CCN(CC)CCCCNc1ncc2cc(-c3cc(OC)cc(OC)c3)c(NC(=O)NC(C)(C)C)nc2n1 [PD173074]
- viability at 1 µM ([1]; Homo sapiens, 72 h, read-out: cell viability, 501Mel GP, 1μΜ): 106%
- viability at 10 µM ([1]; Homo sapiens, 72 h, read-out: cell viability, 501Mel GP, 10μΜ): 13.2%
- viability at 1 µM (A375 cells (parental); Homo sapiens, A-375, 72 h, read-out: cell viability, A375 Parental, 1μΜ): 105%
- viability at 10 µM (A375 cells (parental); Homo sapiens, A-375, 72 h, read-out: cell viability, A375 Parental, 10μΜ): 70.1%
- viability at 1 µM ([2]; Homo sapiens, A-375, 72 h, read-out: cell viability, A375 GP, 1μΜ): 98.2%
- viability at 10 µM ([2]; Homo sapiens, A-375, 72 h, read-out: cell viability, A375 GP, 10μΜ): 62.8%
- viability at 1 µM ([3]; Homo sapiens, A-375, 72 h, read-out: cell viability, A375 XP, 1μΜ): 100%
- viability at 10 µM ([3]; Homo sapiens, A-375, 72 h, read-out: cell viability, A375 XP, 10μΜ): 72%
- viability at 1 µM ([4]; Homo sapiens, 72 h, read-out: cell viability, 501Mel XP, 1μΜ): 97.2%
- viability at 10 µM ([4]; Homo sapiens, 72 h, read-out: cell viability, 501Mel XP, 10μΜ): -0.025%
- viability at 1 µM ([5]; Homo sapiens, IGR-37, 72 h, read-out: cell viability, IGR37 XP, 1μΜ): 92.2%
- viability at 10 µM ([5]; Homo sapiens, IGR-37, 72 h, read-out: cell viability, IGR37 XP, 10μΜ): 14.7%
- viability at 1 µM ([6]; Homo sapiens, IGR-37, 72 h, read-out: cell viability, IGR37 GP, 1μΜ): 91.4%
- viability at 10 µM ([6]; Homo sapiens, IGR-37, 72 h, read-out: cell viability, IGR37 GP, 10μΜ): 50%
- viability at 1 µM (IGR37 cells (parental); Homo sapiens, IGR-37, 72 h, read-out: cell viability, IGR37 Parental, 1μΜ): 99.8%
- viability at 10 µM (IGR37 cells (parental); Homo sapiens, IGR-37, 72 h, read-out: cell viability, IGR37 Parental, 10μΜ): 75.6%
- viability at 1 µM (501Mel cells (parental); Homo sapiens, 72 h, read-out: cell viability, 501Mel Parental, 1μΜ): 103%
- viability at 10 µM (501Mel cells (parental); Homo sapiens, 72 h, read-out: cell viability, 501Mel Parental, 10μΜ): 11.8%

Structure (SMILES): COC(=O)c1ccc2c(c1)NC(=O)/C2=C(\Nc1ccc(N(C)C(=O)CN2CCN(C)CC2)cc1)c1ccccc1 [BIBF1120 (Vargatef)]
- cell viability (kinase inhibitor library screening) ([1]; 1μΜ): 90.5
- cell viability (kinase inhibitor library screening) ([1]; 10μΜ): -0.1
- cell viability (kinase inhibitor library screening) (A375 cells (parental); 1μΜ): 104.6
- cell viability (kinase inhibitor library screening) (A375 cells (parental); 10μΜ): 2.3
- cell viability (kinase inhibitor library screening) ([2]; 10μΜ): 1.1
- cell viability (kinase inhibitor library screening) ([3]; 1μΜ): 103.7
- cell viability (kinase inhibitor library screening) ([3]; 10μΜ): 1.7
- cell viability (kinase inhibitor library screening) ([4]; 1μΜ): 90.7
- cell viability (kinase inhibitor library screening) ([4]; 10μΜ): -0.28
- cell viability (kinase inhibitor library screening) ([5]; 1μΜ): 100.3
- cell viability (kinase inhibitor library screening) ([5]; 10μΜ): 1.9
- cell viability (kinase inhibitor library screening) ([6]; 1μΜ): 97.0
- cell viability (kinase inhibitor library screening) ([6]; 10μΜ): 1.4
- cell viability (kinase inhibitor library screening) (IGR37 cells (parental); 10μΜ): 0.645
- cell viability (kinase inhibitor library screening) (501Mel cells (parental); 1μΜ): 103.8
- cell viability (kinase inhibitor library screening) (501Mel cells (parental); 10μΜ): 0.6
